For data set [1], the system named is P. falciparum isolate 6320. The experiment in a line: 3-day SYBR Green I GIA, field isolate 6320. Conditions: Plasmodium falciparum; artemisinin- and piperaquine-resistant isolate; read-out: Resistant isolates EC50, 6320. In kind it is cell-based. As for the experimental part: A 3-day SYBR Green I inhibition EC50 assay was performed as described previously. Briefly, highly synchronized ring-stage parasites by 5% sorbitol (1% parasitemia and 2% hematocrit) were incubated in a 96-well plate with compounds in a total volume of 200 μL. […] The parasites were cultured for 72 h before SYBR Green I staining as described above. The EC50 was calculated by GraphPad Prism. DHA was used as a positive control, and the final concentration of DMSO was 1%.

A further data set deals with T1, hSirt2 (Homo sapiens, UniProt Q8IXJ6).
T1 construct: purchased BPS Bioscience 50013
T1 sequence (Q8IXJ6 whole entry): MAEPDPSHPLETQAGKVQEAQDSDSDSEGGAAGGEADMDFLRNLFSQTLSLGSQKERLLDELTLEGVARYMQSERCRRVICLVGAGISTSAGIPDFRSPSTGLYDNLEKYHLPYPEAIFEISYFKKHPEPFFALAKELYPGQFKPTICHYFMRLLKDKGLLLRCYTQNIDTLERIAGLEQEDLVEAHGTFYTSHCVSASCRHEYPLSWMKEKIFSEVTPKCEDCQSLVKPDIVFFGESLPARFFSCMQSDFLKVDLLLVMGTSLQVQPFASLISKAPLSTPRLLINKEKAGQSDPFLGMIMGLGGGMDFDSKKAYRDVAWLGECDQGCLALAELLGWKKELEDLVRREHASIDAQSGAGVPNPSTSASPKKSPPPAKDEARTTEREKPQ
The experiment in a line: Human HDAC inhibition assay, hSirt2. The following applies: performed only once; read-out: Inhibitory Activity IC50, hSirt2. Format: biochemical. As for the experimental part:
(§1) SAHA and suramin were used as positive controls. The tested compounds were dissolved into 20 mM stock in 100% DMSO. […] Ten microliters of trypsin and Ac-peptide substrate/Tris buffer solution were added to start the reaction, followed by a 1-h incubation at room temperature for HDACs 1–3 and 6. Ten microliters of Ac-peptide substrate/Tris buffer solution was added to start the reaction, followed by a 4-h incubation at room temperature and a further 2-h incubation with trypsin solution for HDAC8 and Sirt 2. […] This experiment was performed only once.

For a further data set, the system named is human HDACs. The experiment in a line: Human HDAC inhibition assay, summary. Format: biochemical. As for the experimental part:
as §1

For a further data set, the system named is 3D7^HDA1-TY1. The experiment in a line: Sensitivity of transgenic parasites to JX21108, 3D7^HDA1-TY1. Conditions: Plasmodium falciparum, 3D7, 4 h, read-out: EC50 for 3D7^HDA1-TY1. In kind it is cell-based. As for the experimental part:
Highly synchronized schizont-stage parasites were prepared and treated as described above, with adjustments. […] After washing, parasites were cultured in new CM for another 68 h. Parasite growth was monitored by SYBR Green I staining, as described above. The EC50 was calculated by GraphPad Prism.

The test system of data set [2] is P. berghei-ANKA-GFP-luc sporozoites. Briefly: In vivo liver-stage parasite inhibition assay. Further details: species or system Plasmodium berghei in BALB/c mice. As for the experimental part:
An in vivo liver-stage parasite inhibition assay was conducted as described previously[68],[69]. Briefly, five female BALB/c mice (6 weeks, 18 g) per group were infected with 5000 P. berghei-ANKA-GFP-luc sporozoites by i.v injection followed immediately by i.v.-administered JX21108 at a single dose of 30 mg/kg or 60 mg/kg (day 0). The β-cyclodextrin was used as a blank control. For fluorescence detection, 3 mg of D-luciferin sodium (Sinochrome BC-220–10) in 100 μL of ddH2O was i.p. injected into each mouse. The fluorescence signals were visualized by an IVIS Lumina series (PerkinElmer) on days 1–4, 6, and 8 after infection. All experimental procedures followed the National Institutes of Health Guide for the Care and Use of Laboratory Animals, as well as the guidelines of the Animal Welfare and Committee of Institut Pasteur of Shanghai, Chinese Academy of Science, IACUC issue No. A2018009.

In data set [3] the test system is P. falciparum NF54 stage IV gametocytes. Briefly: In vitro gametocyte inhibition assay, stage IV. In kind it is cell-based, Plasmodium falciparum. Conditions: NF54 luciferase line, 48 h exposure. As for the experimental part: To test the activities of JX21108 against different gametocyte stages, the P. falciparum producer NF54^p230p-luc was utilized, as described previously. […] Luciferase intensity based on luciferase expression was detected as described above. The EC50 was calculated by GraphPad Prism. DMSO (1%) was used as a negative control.

The nature of data set [4]: Pharmacokinetic assay in mice. In kind it is in vivo, BALB/c mice. Conditions: 5 mg/kg i.p. As for the experimental part:
Five female BALB/c mice (6–8 weeks, 18–19 g) per group were purchased from JH Laboratory Animal Co., Ltd. All mice were raised at controlled temperature and humidity and had free access to food and water. Compounds were dissolved in 5% DMSO and diluted with 20% aqueous 2-hydroxypropyl-β-cyclodextrin solution to a stock concentration of 0.5 mg/mL. Each mouse was i.p. injected with the compound solution at a dose of 5 mg/kg. Blood samples collected by anticoagulant (K2EDTA)-containing tubes at 0.25, 0.5, 1, 2, 4, 8, and 24 h after injection were centrifuged at 2000× g at 4 °C for 5 min to obtain plasma. LC-MS/MS analysis of samples was carried out by an ACQUITY UPLC HSS T3 1.8-μm column. The mobile phase was a mixture of phase A (0.1% formic acid in water) and phase B (0.1% formic acid in acetonitrile), which ran in gradient mode at a flow rate of 0.6 mL/min at 60 °C. Mass spectra were obtained on an API6500 triple quadrupole equipped with an ESI source. Propranolol was used as an internal standard. The plasma concentrations of the compounds were analyzed, and the pharmacokinetic parameters were calculated via WinNonlin.

A further data set relates to P. yoelii. The experiment in a line: In vivo blood-stage inhibition assay. Further details: species or system Plasmodium yoelii in BALB/c mice. As for the experimental part: Experiment 1: Five female BALB/c mice (6 weeks, 18 g) from each experimental group were infected with 1 × 10^5 rodent malaria parasite P. yoelii via intraperitoneal (i.p) injection. After 24 h, the mice were treated with 30, 60, or 90 mg/kg/day JX21108 via i.p injection and 20 mg/kg/day piperaquine phosphate (PPQ) as a positive control for 5 days. DMSO (5%) was used as a blank control.
Experiment 2: To analyze the differences in drug potency between racemic and enantiopure forms of JX21108, five female BALB/c mice (6 weeks, 18 g) per group were treated with 60 mg/kg/day (+)-JX21108, (−)-JX21108, or JX21108 as described above. Blood smears were made daily from the blood of veins and stained by Giemsa. Parasitemia was counted from at least 5000 RBCs by microscopy. The bodyweight of the mice and the number of deaths were recorded daily. All the graphs were generated by GraphPad Prism. All experimental procedures followed the National Institutes of Health Guide for the Care and Use of Laboratory Animals, as well as the guidelines of the Animal Welfare and Committee of Institut Pasteur of Shanghai, Chinese Academy of Science, IACUC issue No. A2018009.

In the next data set the target is T2, hHDAC8 (Homo sapiens, UniProt Q9BY41).
T2 construct: purchased BPS Bioscience 50008
T2 sequence (Q9BY41 whole entry): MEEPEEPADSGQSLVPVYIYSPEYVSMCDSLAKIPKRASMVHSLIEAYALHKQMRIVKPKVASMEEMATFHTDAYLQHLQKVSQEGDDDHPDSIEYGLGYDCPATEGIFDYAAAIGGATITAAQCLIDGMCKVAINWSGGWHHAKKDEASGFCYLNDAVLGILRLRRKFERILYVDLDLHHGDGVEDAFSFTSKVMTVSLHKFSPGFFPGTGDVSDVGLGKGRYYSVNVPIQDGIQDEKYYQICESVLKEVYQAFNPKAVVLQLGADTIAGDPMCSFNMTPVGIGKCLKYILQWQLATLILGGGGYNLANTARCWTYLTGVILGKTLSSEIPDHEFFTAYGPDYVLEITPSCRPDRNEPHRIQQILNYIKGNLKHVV
Briefly: Human HDAC inhibition assay, hHDAC8. The following applies: performed only once; read-out: Inhibitory Activity IC50, hHDAC8. Format: biochemical. As for the experimental part:
as §1

The mark [5] stands for this setting: female, BALB/c, mouse, plasma, ip.
[6] abbreviates: 30 mg/kg and 60 mg/kg treatment groups, i.p., 5 days.

Some results are limits rather than exact numbers.

What is called EC50 is the concentration giving half of the maximal effect. What is called IC50 is the concentration needed to halve the response being measured. Usually AUC(0-inf) stands for total exposure, with the tail of the curve extrapolated. Low values mean low exposure, high ones high exposure. What is called AUC(0-t) is exposure summed from dosing to a finite time, without extrapolation to infinity. Low readings indicate low exposure, high ones high exposure. Broadly, the half-life is the time in which the quantity being followed falls by half. A low value points to fast loss. For orientation: Cmax means the highest concentration seen after dosing. What is called Tmax is the time at which the peak concentration occurs.

As to `Cl.Cn1cc(CN2CCC3(CCN(c4ncc(C(=O)NO)cn4)C3)C2)c2cc(C#N)ccc21` (stereo not shown) [JX21108], the concentration giving a half-maximal response (EC50) in data set [1] came to 2.6 ± 0.2 nM; in the data set on 3D7^HDA1-TY1, 330 ± 57 nM; in data set [3], 5.9 ± 1.97 nM; in [3] (Plasmodium falciparum, NF54, 48 h), 5.85 ± 1.97 nM. Moreover, the IC50 at hSirt2 was above 10000 nM; at hHDAC8, 62 nM. Besides, the “lower inhibitory activity on human HDACs than quisinostat” value in the data set with human HDACs was “approximately 4 fold”. For the same molecule, the “effect on liver infection or subsequent blood-stage P. berghei infection” value in [2] (single 30 mg/kg dose i.v.) is “did not produce significant effects”. Further, the “liver infection (bioluminescence)” value in [2] (single 60 mg/kg dose i.v., 2 dpi) is reported as “did not show signs of liver infection”. In addition, the blood-stage infection result in data set [2] (single 60 mg/kg dose i.v., until 8 dpi) is “nor did the treated mice show any blood-stage infection”. Besides, the V/F in [4] came out at 15.4 L/kg. Also, in data set [4] (setting [5]), the AUC(0-inf) was found to be 434 ng·h/mL. The AUC(0-t) in data set [4] (setting [5]) worked out at 432 ng·h/mL. In data set [4] (setting [5]), this molecule had a half-life of 55.6 min. The CL/F in data set [4] (female, BALB/c, mouse, plasma, ip, read-out: CL/F (converted)) is 192 mL/min/kg. Further, in data set [4] (female, BALB/c, mouse, plasma, ip, read-out: Cmax), the peak concentration (Cmax) was 511 ng/mL. The Tmax in [4] (female, BALB/c, mouse, plasma, ip, read-out: Tmax) stood at 15 min. Further, in the data set on P. yoelii (setting [6]), the “day on which parasites were completely cleaned up” value was 17 days. The “day till which parasites were detected” value with P. yoelii (setting [6]) worked out at 8 days. Besides, in the data set on P. yoelii (90 mg/kg treatment group, i.p., 5-day treatment), the relapse of malaria result is listed as “no relapse of malaria was observed”. For the same molecule, the “survival of infected mice” value in the data set with P. yoelii (JX21108-treated groups 30–90 mg/kg) is “all the mice survived”. Moreover, the “in vivo antiplasmodial activity in P. yoelii-infected mice” value in the data set with P. yoelii (all doses tested (30–90 mg/kg), i.p., 5 days) is given as “strong in vivo antiplasmodial activity”.

(Values after PMC7733455, “A novel multistage antiplasmodial inhibitor targeting Plasmodium falciparum histone deacetylase 1” (Cell Discovery, 2020).)
